Data on 102 molecules can be found in PubChem BioAssay AID1996.

In brackets after ≈: the same amount, converted by molar mass. Bounds are passed on as bounds.

For this series the following is noted: buffer; pH 7.4; 200.0 µM.
As to `Cn1c(-c2ccc(Cl)nc2)nc2ccccc21`, the solubility (kinetic) was more than 36.6 µg/mL. The molecule `Cc1ccc(C(=O)CCC(=O)NC2CCCC(C)C2C)cc1` (configuration not stated) gave a solubility (kinetic) of 17.4 µg/mL (≈ 57.7 µM). On to `CC(=O)N1CCN=C1SCc1cccc(C)c1`, for which the kinetic solubility stood at 33.7 µg/mL (≈ 136 µM). Regarding `O=C(NCc1ccccc1)c1cc2ccc(O)cc2oc1=O`, the kinetic solubility stood at 6.3 µg/mL (≈ 21.3 µM). Regarding `CC1CCN(Cc2cc(=O)oc3cc4c(cc23)CCCC4)CC1`, the kinetic solubility was less than 0.7 µg/mL. The figure for `Cc1cccc(NC(=S)N2CCN(C(=O)c3ccco3)CC2)c1` is more than 49.4 µg/mL; for `O=C(O)/C=C\C(=O)Nc1ccccc1N1CCN(c2ccccc2)CC1` it is 52 µg/mL (≈ 148 µM); for `CC1CN(c2nc(N(C)c3ccccc3)nc(N)c2[N+](=O)[O-])CC(C)O1` (configuration not stated) it is 28.6 µg/mL (≈ 79.8 µM). For the molecule `Cc1cccc(NC(=O)CCNC(=O)c2ccccc2)c1`, the kinetic solubility was 41.5 µg/mL (≈ 147 µM). Then `Cc1cc(C)c2c(CN3CCCCC3C)cc(=O)oc2c1.Cl` (configuration not stated), with 2 µg/mL; and `CC(CN1C(C)CCCC1C)OC(=O)c1ccccc1Cl` (configuration not stated), with more than 46.5 µg/mL. Then `Cc1ccc(Cl)cc1NC(=O)NCCN1CCCCC1`, with more than 44.4 µg/mL; and `CCN(Cc1ccccc1)C(=O)CC(=O)N(CC)Cc1ccccc1`, with more than 50.8 µg/mL; and `O=C(NCCc1ccc(Cl)cc1)C1CCCN1C(=O)Nc1ccccc1` (configuration not stated), with 54.7 µg/mL (≈ 147 µM). As for `NC(=NCc1ccco1)NC(=O)c1ccccc1`, the solubility (kinetic) was more than 36.5 µg/mL. As to `COC(=O)/C(=C\C(=O)c1ccc([N+](=O)[O-])cc1)Nc1ccc(OC)cc1`, the solubility (kinetic) is less than 0.4 µg/mL. Then `N#Cc1ccc(CN2C=NS(=O)(=O)c3ccccc32)cc1`, with 43.7 µg/mL (≈ 147 µM).

The molecule `CC(c1ccccc1)N1CC(C(=O)Nc2nccs2)CC1=O` (configuration not stated) registered a kinetic solubility of more than 47.3 µg/mL. In turn, `CN(C)/C=N/S(=O)(=O)c1ccc(Cl)cc1` returned a solubility (kinetic) of 35.8 µg/mL (≈ 145 µM). Then `COc1cc(CC(=O)Nc2nc(C)cs2)cc(OC)c1OC`, with 42.9 µg/mL (≈ 133 µM); and `O=C(C1CCCCCC1)N1CC[C@@H](N2CCC(O)CC2)[C@H](O)C1`, with more than 48.7 µg/mL. Turning to `O=C1C(=O)N(CC2COc3ccccc3O2)c2ccccc21` (configuration not stated), the kinetic solubility worked out at 40.6 µg/mL (≈ 137 µM). `CC(O)Cn1c(N2CCCC2)nc2c1c(=O)[nH]c(=O)n2C` (configuration not stated): the kinetic solubility was determined as 41.4 µg/mL (≈ 141 µM). As to `CSc1nc(-c2ccccc2F)c(C#N)c(=O)n1C`, the kinetic solubility amounted to 20.7 µg/mL (≈ 75.2 µM).

For the molecule `COc1ccc(NC(=O)CNC(=O)C2CCCCC2)cc1OC`, the kinetic solubility was more than 48.1 µg/mL.

As for `CC1CCCCC1NC(=O)Cn1c(=O)cnc2ccccc21` (configuration not stated), the solubility (kinetic) is 5 µg/mL (≈ 16.7 µM). `S=C(NCc1cccnc1)Nc1cc(Cl)cc(Cl)c1` registered a solubility (kinetic) of 39.6 µg/mL (≈ 127 µM). The figure for `CCCc1cc(=O)[nH]c(SCC(=O)Nc2ccc(S(=O)(=O)N3CCCC3)cc2)n1` is 29 µg/mL (≈ 66.4 µM); for `Fc1cccc(F)c1-c1nc(-c2ccc(Cl)cc2)no1` it is less than 0.3 µg/mL; for `Cc1ccc2cc3cc(C(=O)NC4CC4)oc3nc2c1` it is 1.3 µg/mL (≈ 4.88 µM).

`COc1ccc(NC(=O)COC(=O)C2CC3C=CC2C3)cc1` (configuration not stated) had a kinetic solubility of more than 45.2 µg/mL. Turning to `CC(C)Cc1ccc(/C=C/C(=O)N2CCCCC2)cc1`, the solubility (kinetic) amounted to 11.6 µg/mL (≈ 42.7 µM). In the case of `O=C1CCC(C(=O)Nc2ccccc2N2CCOCC2)=NN1`, the kinetic solubility was more than 45.3 µg/mL.

In turn, `O=[N+]([O-])c1ccc2nonc2c1Nc1ccccc1` registered a solubility (kinetic) of 0.7 µg/mL (≈ 2.73 µM). Molecule `Cc1c(-c2csc(N)n2)cnn1C` gave a solubility (kinetic) of more than 29.1 µg/mL. Then `O=S(=O)(Nc1ccc(Cl)cn1)c1ccc(F)cc1`, with more than 43 µg/mL; and `COCC(=O)N(Cc1cc2cc(C)ccc2[nH]c1=O)c1cccc(C)c1C`, with 12.3 µg/mL (≈ 33.7 µM). Molecule `COC(=O)c1ccc(OCC(O)CNC2CCCC2)cc1.Cl` (configuration not stated) showed a kinetic solubility of 47.7 µg/mL.

For the molecule `Cc1nc(SCC(=O)N(C)C2CCS(=O)(=O)C2)c2ccccc2n1` (configuration not stated), the kinetic solubility is more than 54.8 µg/mL. As for `Cc1cc(C)cc(OCc2nc(-c3cccnc3)no2)c1`, the solubility (kinetic) is 13.3 µg/mL (≈ 47.3 µM).

For the molecule `c1ccc2c(c1)COC(CNC1CCCCC1)OC2`, the kinetic solubility was more than 39.2 µg/mL. `O=C(Nc1ccc([N+](=O)[O-])cc1)N1CCc2ccccc2C1` registered a solubility (kinetic) of 22 µg/mL (≈ 74 µM).

As for `Cc1cc(C(=O)NCCN2CCOCC2)c2ccccc2n1`, the solubility (kinetic) is more than 44.9 µg/mL. `COc1cc(NC(=O)c2ccccc2)c(OC)cc1NC(=O)Cc1ccc(F)cc1` returned a kinetic solubility of less than 0.4 µg/mL. For the molecule `Cc1ccc(SCC(=O)O/N=C(\N)c2ccncc2)cc1`, the solubility (kinetic) was found to be 29.4 µg/mL (≈ 97.6 µM). In turn, `O=C(NC1CCN(C(=O)NCc2ccccc2)CC1)c1cccc(F)c1` yielded a solubility (kinetic) of 3.4 µg/mL (≈ 9.57 µM). For `NC(Cc1c[nH]c2ccccc12)C(=O)NCc1ccccc1` (configuration not stated), the kinetic solubility was 39.1 µg/mL (≈ 133 µM). `CC1CCCCC12NC(=O)N(CC(=O)OCC(=O)Nc1ccc(F)cc1[N+](=O)[O-])C2=O` (configuration not stated): the kinetic solubility amounted to 7.5 µg/mL (≈ 17.2 µM).

Regarding `CCOc1ccc(-n2c(C)c(C(=O)O)c3cc(OC)ccc32)cc1`, the solubility (kinetic) was determined as 6.3 µg/mL (≈ 19.4 µM). Molecule `CCC(=O)O/N=C(\N)c1ccc(Oc2cc(C)c(Cl)c(C)c2)c([N+](=O)[O-])c1` came in with a solubility (kinetic) of less than 0.3 µg/mL. Consider `O=C(/C=C/c1ccc(S(=O)(=O)N2CCOCC2)cc1)NC(CO)C(O)c1ccc([N+](=O)[O-])cc1` (configuration not stated), for which the solubility (kinetic) is more than 73.7 µg/mL. Molecule `COc1ccc(NC(=O)N2CCc3ccccc3C2)cc1OC` displayed a kinetic solubility of more than 46.9 µg/mL. For the molecule `COc1ccc(SCCC(=O)NCc2ccncc2)cc1`, the solubility (kinetic) is more than 45.4 µg/mL.

For the molecule `COC(=O)c1sc(-c2ccc(Cl)cc2)cc1NC(=O)COCC(=O)O`, the kinetic solubility was 28.1 µg/mL (≈ 73.2 µM). `CCOc1ccc(N2C(=O)S/C(=C\c3ccc(O)c(OCC)c3)C2=O)cc1`: the kinetic solubility was less than 0.8 µg/mL. Then `O=C(COC(=O)c1ccccc1Cl)Nc1ccc2[nH]c(=O)[nH]c2c1`, with 23.3 µg/mL (≈ 67.4 µM); and `CN(C)S(=O)(=O)c1cccc(NC(=O)c2ccc(N3CCCC3=O)cc2)c1`, with 5.7 µg/mL (≈ 14.7 µM); and `O=C(COC(=O)C1COc2ccccc2O1)Nc1ccccc1OC(F)F` (configuration not stated), with more than 56.9 µg/mL.

As to `O=C(COc1ccccc1Cl)N1CCCCCCC1`, the kinetic solubility is 31.4 µg/mL (≈ 111 µM).

In turn, `CN(C)c1ccc(C(=O)OCC(=O)NCCC2=CCCCC2)cc1` registered a kinetic solubility of 4.7 µg/mL (≈ 14.2 µM). For the molecule `COCCNCC(=O)Nc1ccc(OC(F)(F)F)cc1.Cl`, the solubility (kinetic) came to 48.8 µg/mL.

`CS(=O)(=O)N(CC(=O)N1CCCC1)Cc1ccc(F)cc1` came in with a solubility (kinetic) of more than 47.2 µg/mL. As to `Nc1nc2c(s1)CCCCCCCCCC2`, the solubility (kinetic) turned out to be 6.6 µg/mL (≈ 27.7 µM). Then `Cc1ccccc1C(=O)Nc1ccc(CN2CCOCC2)cc1`, with 45.9 µg/mL (≈ 148 µM). For `Nc1cccc(NC(=O)CN2CCOCC2)c1`, the solubility (kinetic) was more than 35.3 µg/mL.

The molecule `Cc1ccccc1-n1nc2c(c1NC(=O)C(C)(C)C)CS(=O)(=O)C2` displayed a kinetic solubility of more than 52.1 µg/mL. In the case of `O=C(NC1(C(F)(F)F)OCCO1)c1ccc(F)cc1`, the kinetic solubility amounted to 32.9 µg/mL (≈ 118 µM). Molecule `FC(F)(F)c1cccc(Cc2noc(CN3C[C@@H]4CCC[C@H]3C4)n2)c1` yielded a solubility (kinetic) of 28.4 µg/mL (≈ 80.8 µM). `O=[N+]([O-])c1ccc(CCn2ccnc2)cc1`: the solubility (kinetic) is more than 32.6 µg/mL.

In the case of `Cc1ccc2c(c1)oc(=O)n2CC(=O)c1ccccc1`, the kinetic solubility is 6.5 µg/mL (≈ 24.3 µM). With `COc1ccc(Nc2nnc(C)c(=O)[nH]2)c(OC)c1`, the kinetic solubility is more than 39.3 µg/mL. As for `O=C1C(CCS(=O)c2ccccc2)C(=O)N(c2ccccc2)N1c1ccccc1` (configuration not stated), the kinetic solubility was more than 60.7 µg/mL.

In turn, `COc1cccc(CN(C)C(c2ccccc2)c2ccccc2)c1OC` gave a kinetic solubility of 1.7 µg/mL (≈ 4.89 µM).

`Cc1cc(C)n(/C(=C\N(C)C)C(=O)c2cccc([N+](=O)[O-])c2)n1` came in with a kinetic solubility of more than 47.2 µg/mL. Take `Cc1nnc(Nc2ccc(C(=O)O)cc2)[nH]c1=O`: the solubility (kinetic) was more than 36.9 µg/mL. `Cc1cc(OCC(=O)N(C(C)C)C(C)C)ccc1Cl` gave a kinetic solubility of 28.8 µg/mL (≈ 101 µM). `CCOC(=O)C1=C(c2ccccc2)OC(N)=C(C#N)C1c1cccnc1` (configuration not stated) displayed a kinetic solubility of 35.9 µg/mL (≈ 103 µM). `COC(OC)C1(C)C(C#N)=C(N)Oc2c1c(=O)oc1ccccc21` (configuration not stated) had a solubility (kinetic) of 5.3 µg/mL (≈ 16.1 µM). Turning to `Cc1cccc(NC(=S)N2CCCC2)c1`, the solubility (kinetic) was more than 33 µg/mL. Molecule `Cc1cc(C)nc(SCC(=O)Nc2ccc3c(c2)OCO3)n1` showed a solubility (kinetic) of 45.8 µg/mL (≈ 144 µM). Molecule `CC(CC(=O)N1CCN(C(=O)c2ccccc2)CC1)c1ccccc1` (configuration not stated) had a kinetic solubility of more than 50.5 µg/mL. In the case of `O=C(NCc1nc(-c2ccc(C(F)(F)F)cc2)no1)Nc1ccc(F)cc1F`, the kinetic solubility was 1.1 µg/mL (≈ 2.76 µM). The figure for `COc1ccccc1C(=O)C1CCCN(Cc2cccc3nccnc23)C1` (configuration not stated) is 39.5 µg/mL (≈ 109 µM). Then `CC1CCCCC1NC(=O)CSc1nc2ccccc2[nH]1` (configuration not stated), with 37.5 µg/mL (≈ 124 µM); and `Cc1cc(C)nc(Nc2cc([N+](=O)[O-])ccc2C)n1.Cl`, with 5.4 µg/mL; and `Cc1ccc(NC(=O)COC(=O)c2ccc[n+]([O-])c2)c(Br)c1`, with more than 54.8 µg/mL. In turn, `O=c1[nH]c(-c2ccccc2)nc(-c2ccccc2)c1Cl` came in with a kinetic solubility of 2.4 µg/mL (≈ 8.49 µM). Regarding `O=c1[nH]c(/C=C/c2cccc(Br)c2)nc2ccccc12`, the solubility (kinetic) was less than 0.4 µg/mL. The figure for `COc1cccc(-c2nc(N)nc(SC)c2C#N)c1` is 0.6 µg/mL (≈ 2.2 µM); for `COc1ccc(S(=O)(=O)N2CN3CCN(C3)C2)cc1OC` it is more than 47 µg/mL. In turn, `COc1cc(OC)cc(C(=O)NCCc2ccc(OC)c(OC)c2)c1` gave a solubility (kinetic) of 45.5 µg/mL (≈ 132 µM). Consider `CCN(Cc1nc(-c2cccc(C)c2)no1)C(=O)c1ccco1`, for which the solubility (kinetic) was 44.4 µg/mL (≈ 143 µM). In turn, `Cc1cccc2c(N=O)c(O)n(CCc3ccccc3)c12` displayed a solubility (kinetic) of 0.4 µg/mL (≈ 1.43 µM). `Clc1nc(Cl)nc(NCCC2=CCCCC2)n1` displayed a solubility (kinetic) of more than 41 µg/mL.

`CN(C)c1ccc(N=Cc2cccn2C)cc1` yielded a kinetic solubility of more than 34.1 µg/mL. The figure for `O=C(Cc1ccc(F)cc1)N1CCN(c2ccc([N+](=O)[O-])cc2)CC1` is 3.5 µg/mL (≈ 10.2 µM); for `COc1ccccc1CCNC(=O)Cc1cccs1` it is 37.5 µg/mL (≈ 136 µM). The figure for `O=C(COc1ccccc1)NCC1(N2CCCCC2)CCCCC1` is 48.3 µg/mL (≈ 146 µM); for `CC(C)(C)NC(=O)NC(=O)CN1CCc2ccccc21` it is 27.5 µg/mL (≈ 99.9 µM); for `Cc1ccc(N2C(=NC(=O)c3ccccc3)SC3CS(=O)(=O)CC32)cc1` (configuration not stated) it is less than 0.4 µg/mL. On to `C=CCNc1nc(S(=O)Cc2ccc(C)cc2)nc2c1CCCC2` (configuration not stated), for which the solubility (kinetic) is more than 51.2 µg/mL.

In the case of `O=C(NC1CCCCC1)C1COc2ccccc2O1` (configuration not stated), the solubility (kinetic) is more than 39.2 µg/mL.

As a reminder, the kinetic solubility is the concentration staying in solution when a stock, usually in DMSO, is diluted into the medium.
